Measured values as given in patent publication US8883801B2, “Substituted pyrazolo[1,5-a]pyrimidines as mTOR inhibitors” (Merck Sharp & Dohme Corp., priority 2010, dated 2014).

Tests used:
[1] = target: human mTOR enzyme (Homo sapiens, UniProt P42345); test: HTRF mTOR enzyme (kinase) assay; format: biochemical; details: rated class; 5 μM ATP, 0.2 μM GST-S6K; read-out: hMTOR IC50
[2] = test system: mTORC2 activity: phosphorylated AKT Ser473 (pAKT S473) in PC3 cells; test: mTOR target engagement assay, immunofluorescent cell-based, mTORC2 readout; details: Homo sapiens, PC-3, 1.5 h, rated class, 90 min treatment
Description: The target engagement of mTOR kinase inhibitors was evaluated using an immunofluorescent cell-based assay. In this assay, inhibition of mTORC1 activity was measured by the reduction in the level of phosphorylated 4E-BP1Thr37/46 (p4E-BP1 Thr37/46), and inhibition of mTORC2 activity was measured by the reduction of phosphorylated AKTSer473 (pAKT S473).
PC3 cells (prostate tumor cell-line that contains a mutation in the tumor suppressor PTEN, that promotes the phosphorylation and activation of AKT and 4E-BP1) were used in the immunofluorescence assay. PC3 cells were seeded on 384 well plates (black clear bottom, Matrix #4332) overnight. PC3 cells were then treated with 40 μl of the serially diluted test compounds (in 5% fetal bovine serum, F12 medium containing 0.25% DMSO) for ninety minutes at 37° C. The test compound solution was removed, and the plates were washed gently two times with 25 μl phosphate buffered saline (PBS). The cells were fixed by adding 25 μl of Prefer reagent (from Anatech LTD, Cat#414, a glyoxal fixative for fixing proteins within a cell) for sixty minutes followed by three washes with PBS. 5% Goat serum in PBS/0.3% Triton was used to block non-specific binding (60 minutes).
The primary antibodies targeting pAKT S473 and p4E-BP1 Thr37/46 were diluted into PBS/0.3% Triton and incubated with the cells overnight at 4° C. The antibodies targeting pAKTS473 (Cat#4085, Cell signaling) and p4E-BP1 Thr37/46 (Cat#2855, Cell signaling) were used at a 1:100 dilution. Plates were washed three times with PBS/0.1% Tween 20 before adding the secondary antibody at a 1:200 dilution. (goat anti-rabbit containing a fluorescent label, Alexa Fluor 488, Cat#A11008, Invitrogen) in PBS/0.3% Triton for 60 minutes.
Finally, the plates were washed three times with PBS/0.1% Tween 20 and the fluorescent intensity was read using an Analyst HT from Molecular Devices. The fluorescent intensity values from the serially diluted compound treatment group were analyzed using the Xlfit 4 program ([…]) (Formula 205: Y=Bottom+(Top-Bottom)/(1+(IC50/X)^Hillslope) to generate the IC50 value. Where Top is the maximum signal without Compound (+DMSO only) and Bottom represents maximum inhibition. Y is the fluorescence at some compound concentration. The control used to determine the fluorescent intensities for 100% pAKT S473 or 100% phosphorylated p4E-BP1 Thr37/46 were measured from untreated wells that contained only DMSO, instead of test compound.

Chain of human mTOR enzyme (P42345 1360-2549 limits assumed): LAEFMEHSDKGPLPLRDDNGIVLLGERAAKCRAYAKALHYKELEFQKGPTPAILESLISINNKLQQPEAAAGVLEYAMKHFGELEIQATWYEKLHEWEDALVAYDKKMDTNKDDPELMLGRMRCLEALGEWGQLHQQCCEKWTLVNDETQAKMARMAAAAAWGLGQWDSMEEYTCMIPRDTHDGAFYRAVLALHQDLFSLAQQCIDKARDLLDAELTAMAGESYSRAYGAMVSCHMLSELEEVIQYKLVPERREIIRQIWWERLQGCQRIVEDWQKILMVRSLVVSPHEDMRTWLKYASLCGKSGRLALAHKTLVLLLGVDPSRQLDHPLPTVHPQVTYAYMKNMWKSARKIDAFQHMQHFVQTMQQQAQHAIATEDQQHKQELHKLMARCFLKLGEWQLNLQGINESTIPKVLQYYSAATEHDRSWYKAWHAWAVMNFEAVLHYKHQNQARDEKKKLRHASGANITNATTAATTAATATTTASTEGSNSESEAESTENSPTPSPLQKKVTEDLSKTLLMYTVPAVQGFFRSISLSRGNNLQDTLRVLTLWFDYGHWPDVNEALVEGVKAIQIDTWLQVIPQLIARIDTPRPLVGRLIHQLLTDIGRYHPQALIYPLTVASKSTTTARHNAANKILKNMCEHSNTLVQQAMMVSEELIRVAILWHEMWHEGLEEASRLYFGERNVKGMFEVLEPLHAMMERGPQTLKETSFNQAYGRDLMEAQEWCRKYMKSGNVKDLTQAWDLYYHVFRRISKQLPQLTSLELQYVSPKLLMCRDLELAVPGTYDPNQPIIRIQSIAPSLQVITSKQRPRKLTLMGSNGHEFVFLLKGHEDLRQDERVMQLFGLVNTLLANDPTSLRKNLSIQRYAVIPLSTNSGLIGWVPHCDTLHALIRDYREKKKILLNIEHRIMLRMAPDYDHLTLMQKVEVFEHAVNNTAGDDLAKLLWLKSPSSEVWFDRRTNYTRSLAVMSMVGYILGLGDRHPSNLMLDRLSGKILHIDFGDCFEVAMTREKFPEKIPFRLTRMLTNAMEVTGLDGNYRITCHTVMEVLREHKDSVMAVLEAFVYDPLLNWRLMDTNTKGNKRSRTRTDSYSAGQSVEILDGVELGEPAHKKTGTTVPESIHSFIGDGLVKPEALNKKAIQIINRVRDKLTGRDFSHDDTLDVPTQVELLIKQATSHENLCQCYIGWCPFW

Row | SMILES | IC50 [1] [nM] | IC50 [2] [nM]
1 | COCCO[C@]1(C(=O)O)CC[C@H](c2nc3c(-c4ccc(-c5ccccc5)nc4)cnn3c(N)c2C(C)=O)CC1 [Compound 56, (1S,4S)-4-(6-acetyl-7-amino-3-(6-phenylpyridin-3-yl)pyrazolo[1,5-a]pyrimidin-5-yl)-1-(2-methoxyethoxy) cyclohexanecarboxylic acid] | 1 to 100 | 5000 to 15000
2 | CC(=O)c1c(C2CCC(CO)(C(=O)O)CC2)nc2c(-c3cnn(-c4ccccc4)c3)cnn2c1N (stereo not shown) [Compound 132, 4-(6-acetyl-7-amino-3-(1-phenyl-1H-pyrazol-4-yl)pyrazolo[1,5-a]pyrimidin-5-yl)-1-(hydroxymethyl)cyclohexanecarboxylic acid] | 1 to 100 | 100 to 1000
3 | COCCO[C@]1(C(=O)O)CC[C@H](c2nc3c(-c4cnn(-c5ccccc5)c4)cnn3c(N)c2C(C)=O)CC1 [Compound 54, (1S,4S)-4-(6-acetyl-7-amino-3-(1-phenyl-1H-pyrazol-4-yl)pyrazolo[1,5-a]pyrimidin-5-yl)-1-(2-methoxyethoxy)cyclohexanecarboxylic acid] | 1 to 100 | 5000 to 15000
4 | COCCOC1(CO)CCC(c2nc3c(-c4ccc(-c5ccccc5)nc4)cnn3c(N)c2C(C)=O)CC1 (stereo not shown) [Compound 86, 1-(7-amino-5-(4-(hydroxymethyl)-4-(2-methoxyethoxy)-cyclohexyl)-3-(6-phenylpyridin-3-yl)pyrazolo[1,5-a]pyrimidin-6-yl)ethanone] | 1 to 100 | 100 to 1000
5 | CC(=O)c1c(N)n2ncc(-c3cnn(-c4cnn(C)c4)c3)c2nc1[C@H]1CC[C@@](O)(CO)CC1 [Compound 148, 1-(7-amino-5-((1R,4R)-4-hydroxy-4-(hydroxymethyl)cyclohexyl)-3-(1′-methyl-1′H-1,4′-bipyrazol-4-yl)pyrazolo[1,5-a]pyrimidin-6-yl)ethanone] | 1 to 100 | 2000 to 5000
6 | CC(=O)c1c(C2CCC(O)(CO)CC2)nc2c(-c3cnn(-c4cscn4)c3)cnn2c1N (single isomer, unassigned) [Compound 152, 1-(7-amino-5-(4-hydroxy-4-(hydroxymethyl)-cyclohexyl)-3-(1-(thiazol-4-yl)-1H-pyrazol-4-yl)pyrazolo[1,5-a]pyrimidin-6-yl)ethanone] | 1 to 100 | 1000 to 2000
7 | COCCO[C@]1(C(=O)O)CC[C@@H](c2nc3c(-c4ccc(-c5ccccc5)nc4)cnn3c(N)c2C(C)=O)CC1 [Compound 57, (1R,4R)-4-(6-acetyl-7-amino-3-(6-phenylpyridin-3-yl)pyrazolo[1,5-a]pyrimidin-5-yl)-1-(2-methoxyethoxy) cyclohexanecarboxylic acid] | 1 to 100 | 100 to 1000
8 | CC(=O)c1c(N)n2ncc(-c3ccc(-c4ccccc4)nc3)c2nc1[C@H]1CC[C@@](OCCN2CCOCC2)(C(=O)O)CC1 [Compound 58, (1R,4R)-4-(6-acetyl-7-amino-3-(6-phenylpyridin-3-yl)pyrazolo[1,5-a]pyrimidin-5-yl)-1-(2-morpholinoethoxy) cyclohexanecarboxylic acid] | 1 to 100 | 100 to 1000
9 | CC(=O)c1c(C2CCC(CO)(CO)CC2)nc2c(-c3ccc(-c4ccccc4)nc3)cnn2c1N [Compound 172, 1-(7-amino-5-(4,4-bis(hydroxymethyl)-cyclohexyl)-3-(6-phenylpyridin-3-yl)pyrazolo[1,5-a]pyrimidin-6-yl)ethanone] | 1 to 100 | 1 to 100

Results, then the compound that gave them:

Row | IC50 [1] [nM] | IC50 [2] [nM] | SMILES
10 | 1 to 100 | 5000 to 15000 | COc1ccc(-c2ccc(-c3cnn4c(N)c(C(C)=O)c(C5CCC(O)(CO)CC5)nc34)cn2)cc1C(=O)O (stereo not shown) [Compound 155, 5-(5-(6-acetyl-7-amino-5-(4-hydroxy-4-(hydroxymethyl)-cyclohexyl)-pyrazolo-[1,5-a]pyrimidin-3-yl)pyridin-2-yl)-2-methoxybenzoic acid]
11 | 1 to 100 | 100 to 1000 | COCCO[C@]1(C(=O)O)CC[C@@H](c2nc3c(-c4ccc(-c5cscn5)nc4)cnn3c(N)c2C(C)=O)CC1 [Compound 62, (1R,4R)-4-(6-acetyl-7-amino-3-(6-(thiazol-4-yl)pyridin-3-yl)pyrazolo[1,5-a]pyrimidin-5-yl)-1-(2-methoxyethoxy) cyclohexanecarboxylic acid]
12 | 1 to 100 | 2000 to 5000 | COc1ccc(-c2ccc(-c3cnn4c(N)c(C(C)=O)c(C5CCC(O)(CO)CC5)nc34)cn2)cn1 (single isomer, unassigned) [Compound 146, 1-(7-amino-5-(4-hydroxy-4-(hydroxymethyl)-cyclohexyl)-3-(6′-methoxy-2,3′-bipyridin-5-yl)pyrazolo[1,5-a]pyrimidin-6-yl)ethanone]
13 | 1 to 100 | 1000 to 2000 | CC(=O)c1c(C2CCC(O)(CO)CC2)nc2c(-c3ccc(-c4cccnc4)nc3)cnn2c1N (stereo not shown) [Compound 143, 1-(3-(2,3′-bipyridin-5-yl)-7-amino-5-(4-hydroxy-4-(hydroxymethyl)-cyclohexyl)-pyrazolo-[1,5-a]pyrimidin-6-yl)ethanone]
14 | 1 to 100 | 2000 to 5000 | COCCOC[C@]1(C(=O)O)CC[C@@H](c2nc3c(-c4ccc(-c5ccccc5)nc4)cnn3c(N)c2Br)CC1 [Compound 12, (1S,4S)-4-(7-amino-6-bromo-3-(6-phenylpyridin-3-yl)pyrazolo[1,5-a]pyrimidin-5-yl)-1-((2-methoxyethoxy)methyl)cyclohexane-carboxylic acid]
15 | 1 to 100 | 2000 to 5000 | CC(=O)c1c(C2CCC(O)(CO)CC2)nc2c(-c3ccc(-c4cncs4)nc3)cnn2c1N (stereo not shown) [Compound 157, 1-(7-amino-5-(4-hydroxy-4-(hydroxymethyl)-cyclohexyl)-3-(6-(thiazol-5-yl)pyridin-3-yl)pyrazolo[1,5-a]pyrimidin-6-yl)ethanone]
16 | 1 to 100 | 1000 to 2000 | COCCOC1(CO)CCC(c2nc3c(-c4cnn(-c5ccccc5)c4)cnn3c(N)c2Br)CC1 (stereo not shown) [Compound 83, (4-(7-amino-6-bromo-3-(1-phenyl-1H-pyrazol-4-yl)pyrazolo[1,5-a]pyrimidin-5-yl)-1-(2-methoxyethoxy)-cyclohexyl)methanol]
17 | 1 to 100 | 100 to 1000 | Nc1c(Br)c([C@H]2CC[C@](O)(CCO)CC2)nc2c(-c3ccc(-c4ccccc4)nc3)cnn12 [Compound 137, (1S,4S)-4-(7-amino-6-bromo-3-(6-phenylpyridin-3-yl)pyrazolo[1,5-a]pyrimidin-5-yl)-1-(2-hydroxyethyl)cyclohexanol]
18 | 1 to 100 | 1000 to 2000 | Nc1c(Br)c([C@H]2CC[C@@](OCCN3CCOCC3)(C(=O)O)CC2)nc2c(-c3ccc(-c4ccccc4)nc3)cnn12 [Compound 65, (1R,4R)-4-(7-amino-6-bromo-3-(6-phenylpyridin-3-yl)pyrazolo[1,5-a]pyrimidin-5-yl)-1-(2-morpholinoethoxy) cyclohexanecarboxylic acid]
19 | 1 to 100 | 1000 to 2000 | COCC1(CO)CCC(c2nc3c(-c4ccc(-c5ccccc5)nc4)cnn3c(N)c2C(C)=O)CC1 (stereo not shown) [Compound 170, 1-(7-amino-5-(4-(hydroxymethyl)-4-(methoxymethyl)-cyclohexyl)-3-(6-phenylpyridin-3-yl)pyrazolo[1,5-a]pyrimidin-6-yl)ethanone]
20 | 1 to 100 | 100 to 1000 | Nc1c(Br)c(C2CCC(O)(CO)CC2)nc2c(-c3cnc4ccc(F)cc4c3)cnn12 (stereo not shown) [Compound 136, 4-(7-amino-6-bromo-3-(6-fluoroquinolin-3-yl)pyrazolo[1,5-a]pyrimidin-5-yl)-1-(hydroxymethyl)cyclohexanol]
21 | 1 to 100 | 1000 to 2000 | Nc1c(Br)c([C@H]2CC[C@](OCCN3CCOCC3)(C(=O)O)CC2)nc2c(-c3ccc(-c4ccccc4)nc3)cnn12 [Compound 66, (1S,4S)-4-(7-amino-6-bromo-3-(6-phenylpyridin-3-yl)pyrazolo[1,5-a]pyrimidin-5-yl)-1-(2-morpholinoethoxy) cyclohexanecarboxylic acid]
22 | 1 to 100 | 100 to 1000 | CO[C@]1(CO)CC[C@H](c2nc3c(-c4ccc(-c5ccccc5)nc4)cnn3c(N)c2C(C)=O)CC1 [Compound 85, 1-(7-amino-5-((1S,4S)-4-(hydroxymethyl)-4-methoxycyclohexyl)-3-(6-phenylpyridin-3-yl)pyrazolo[1,5-a]pyrimidin-6-yl)ethanone]
23 | 1 to 100 | 1000 to 2000 | COCC1(O)CCC(c2nc3c(-c4cnc5ccc(F)cc5c4)cnn3c(N)c2Br)CC1 (stereo not shown) [Compound 165, 4-(7-amino-6-bromo-3-(6-fluoroquinolin-3-yl)pyrazolo[1,5-a]pyrimidin-5-yl)-1-(methoxymethyl)cyclohexanol]
